Experimental data published in US20160052937A1, “Tetrahydroimidazo[1,5-d][1,4]oxazepine compound” (Eisai R&D Management Co., Ltd., priority 2014, published 2016).

target: T1, human metabotropic glutamate receptor 2 (mGluR2) (Homo sapiens, UniProt Q14416); experiment: [35S]GTPγS binding assay (Affinity to mGluR2); format: biochemical; conditions: cell membrane fraction of HEK293 cells stably expressing human mGluR2; glutamic acid 10 μM
T1 construct: expressed in transfected cells; co-expressing human SLC1A3), cell membrane fraction
T1 sequence (Q14416 19-872): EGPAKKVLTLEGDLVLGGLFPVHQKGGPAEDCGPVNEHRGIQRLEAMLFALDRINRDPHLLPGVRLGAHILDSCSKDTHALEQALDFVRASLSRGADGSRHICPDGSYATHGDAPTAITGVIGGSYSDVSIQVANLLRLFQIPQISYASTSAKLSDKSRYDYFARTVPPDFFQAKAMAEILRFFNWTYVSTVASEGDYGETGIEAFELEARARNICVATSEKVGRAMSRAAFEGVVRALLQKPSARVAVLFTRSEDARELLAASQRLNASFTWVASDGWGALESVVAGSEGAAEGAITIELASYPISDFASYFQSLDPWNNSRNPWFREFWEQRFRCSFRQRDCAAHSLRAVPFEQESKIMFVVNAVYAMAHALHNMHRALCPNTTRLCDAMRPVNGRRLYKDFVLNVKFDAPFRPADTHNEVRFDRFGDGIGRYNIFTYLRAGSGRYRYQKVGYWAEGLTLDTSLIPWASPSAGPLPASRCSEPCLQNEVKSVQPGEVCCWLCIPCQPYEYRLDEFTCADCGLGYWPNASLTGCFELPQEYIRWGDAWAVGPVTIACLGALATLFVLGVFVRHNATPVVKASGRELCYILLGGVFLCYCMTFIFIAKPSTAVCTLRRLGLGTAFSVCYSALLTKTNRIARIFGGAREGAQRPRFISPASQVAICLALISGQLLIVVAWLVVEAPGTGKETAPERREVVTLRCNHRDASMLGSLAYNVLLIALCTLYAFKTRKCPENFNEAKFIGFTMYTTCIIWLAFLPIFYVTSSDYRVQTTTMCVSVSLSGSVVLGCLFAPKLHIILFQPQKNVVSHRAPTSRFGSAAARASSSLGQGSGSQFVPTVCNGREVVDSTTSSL
Experimental: (Preparation of Cell Membrane Fraction of HEK293 Cells Stably Expressing Human Metabotropic Glutamate Receptor 2 (mGluR2))
HEK293 cells stably expressing human mGluR2 and human glutamate transporter SLC1A3 were cultured in a Dulbecco's modified Eagle's medium with 10% fetal bovine serum (50 units/mL of penicillin, 50 μg/mL of streptomycin, 60 μg/mL of geneticin, 400 μg/mL of hygromycin B and 2 mM of glutamine) at 37° C. under 5% CO2. Confluent cell cultures were washed twice with PBS(−), and then scraped off with a cell scraper, and subjected to centrifugal separation at 4° C. and 1500 rpm for 5 minutes for collecting cells. The centrifuged sediment (cell pellet) was homogenized in a 20 mM HEPES buffer containing 10 mM EDTA (pH 7.4) by using sonicator and centrifuged at 4° C. and 1500×g for 30 minutes. The supernatant (soluble fraction) was subjected to the centrifugal separation at 4° C. and 40,000×g for 30 minutes, and thus, insoluble fraction was obtained. After additional centrifugally washing the obtained fraction with 20 mM HEPES buffer containing 10 mM EDTA (pH 7.4), the pellet was centrifugally suspended with a 20 mM HEPES buffer containing 0.1 mM EDTA, and the cell membrane fraction was obtained by the centrifugal separation at 4° C. and 40,000×g for 30 minutes. The thus obtained cell membrane fraction was suspended in a 20 mM HEPES buffer containing 0.1 mM EDTA in a protein concentration of 3 mg/mL, which was stored at −80° C.
([^35S]GTPγS binding assay)
The frozen cell membrane fraction prepared as described above was thawed before use, and the resultant was diluted with a buffer for a binding assay (final concentrations: 20 mM HEPES, 100 mM NaCl, 1 mM MgCl2, 3 μM GDP, 300 μg/mL saponin, 0.1% BSA). The compound of each example was added to a cell membrane fraction containing 1.8 to 3 μg/assay of membrane protein on a plate, followed by incubation at room temperature for 30 minutes. Thereafter, with glutamic acid (in a final concentration of 10 μM) added thereto, incubation was performed at room temperature for 15 minutes, and thereafter, [^35S]GTPγS (in a final concentration of 0.8 kBq) and 588 μg WGA-SPA beads were added thereto, followed by incubation at room temperature for 1 hour. After the incubation, the plate was subjected to the centrifugal separation at 2,500 rpm and room temperature, and then, membrane cell binding radioactivity was measured with a top count.
A [^35S]GTPγS binding amount obtained by performing the above-described reaction in the absence of glutamic acid was defined as nonspecific binding, and a difference from a [^35S]GTPγS binding amount obtained in the presence of glutamic acid was defined as specific binding. On the basis of ratios of inhibiting the specific binding at various concentrations of the compounds of the respective examples, inhibition curves were obtained. Concentrations of the compounds of the respective examples at which the specific [^35S]GTPγS binding amount was suppressed by 50% (IC50 values) were calculated on the basis of the inhibition curves and shown in Table 3.

IC50 [nM] | SMILES
2.3 | C[C@@H]1Cn2c(-c3ccc(F)cc3)nc(-c3ccc(S(=O)(=O)NC4CCC4)cc3)c2CCO1 [Example 37]
2.2 | O=S(=O)(NC1CCC1)c1ccc(-c2nc(-c3ccc(F)cc3)n3c2CCO[C@H](CF)C3)cc1 [Example 38]
0.9 | CC1(NS(=O)(=O)c2ccc(-c3nc(-c4ccc(F)cc4)n4c3CCO[C@H](CF)C4)cc2)CCC1 [Example 39]
2.6 | CC(C)NS(=O)(=O)c1ccc(-c2nc(-c3ccc(F)cc3)n3c2CCO[C@H](CF)C3)cc1 [Example 40]
2.1 | CC(C)(C)NS(=O)(=O)c1ccc(-c2nc(-c3ccc(F)cc3)n3c2CCO[C@H](CF)C3)cc1 [Example 41]
9.8 | CCNS(=O)(=O)c1ccc(-c2nc(-c3ccc(F)cc3)n3c2CCO[C@H](CF)C3)cc1 [Example 42]
3.1 | COc1ccc(-c2nc(-c3ccc(S(=O)(=O)NC(C)C)cc3)c3n2C[C@@H](CF)OCC3)cc1 [Example 43]
2.3 | COc1ccc(-c2nc(-c3ccc(S(=O)(=O)NC4CCC4)cc3)c3n2C[C@@H](CF)OCC3)cc1 [Example 44]
2.2 | COc1ccc(-c2nc(-c3ccc(S(=O)(=O)NC4(C)CCC4)cc3)c3n2C[C@@H](CF)OCC3)cc1 [Example 45]
6 | CCNS(=O)(=O)c1ccc(-c2nc(-c3ccc(OC)cc3)n3c2CCO[C@H](CF)C3)cc1 [Example 46]
6.3 | COc1ccc(-c2nc(-c3ccc(S(=O)(=O)NC4CC4)cc3)c3n2C[C@@H](CF)OCC3)cc1 [Example 47]
11.2 | CCOc1ccc(-c2nc(-c3ccc(S(=O)(=O)NC4CC4)cc3)c3n2C[C@@H](CF)OCC3)cc1 [Example 49]
9.5 | CCNS(=O)(=O)c1ccc(-c2nc(-c3ccc(OCC)cc3)n3c2CCO[C@H](CF)C3)cc1 [Example 50]
11.9 | CC(C)NS(=O)(=O)c1ccc(-c2nc(-c3ccc(OCF)cc3)n3c2CCO[C@H](CF)C3)cc1 [Example 51]
4.1 | CC(C)(C)NS(=O)(=O)c1ccc(-c2nc(-c3ccc(OCF)cc3)n3c2CCO[C@H](CF)C3)cc1 [Example 52]
4.7 | CC(C)NS(=O)(=O)c1ccc(-c2nc(-c3ccc(OC(F)F)cc3)n3c2CCO[C@H](CF)C3)cc1 [Example 53]
4.9 | CC(C)(C)NS(=O)(=O)c1ccc(-c2nc(-c3ccc(OC(F)F)cc3)n3c2CCO[C@H](CF)C3)cc1 [Example 54]
2.9 | CCOc1ccc(-c2nc(-c3ccc(S(=O)(=O)NC(C)(C)C)cc3)c3n2C[C@@H](CF)OCC3)cc1 [Example 55]
10.7 | CCNS(=O)(=O)c1ccc(-c2nc(-c3ccc(OCF)cc3)n3c2CCO[C@H](CF)C3)cc1 [Example 56]
4.1 | CC1(NS(=O)(=O)c2ccc(-c3nc(-c4ccc(OCF)cc4)n4c3CCO[C@H](CF)C4)cc2)CCC1 [Example 57]
15.3 | O=S(=O)(NC1CCC1)c1ccc(-c2nc(-c3ccc(OCF)cc3)n3c2CCO[C@H](CF)C3)cc1 [Example 58]
3.9 | CCNS(=O)(=O)c1ccc(-c2nc(-c3ccc(OC(F)F)cc3)n3c2CCO[C@H](CF)C3)cc1 [Example 59]
4.6 | O=S(=O)(NC1CCC1)c1ccc(-c2nc(-c3ccc(OC(F)F)cc3)n3c2CCO[C@H](CF)C3)cc1 [Example 60]
3.7 | CC1(NS(=O)(=O)c2ccc(-c3nc(-c4ccc(OC(F)F)cc4)n4c3CCO[C@H](CF)C4)cc2)CCC1 [Example 61]

Further lines, the molecule ahead of its results:

SMILES | IC50 [nM]
CC(C)NS(=O)(=O)c1ccc(-c2nc(-c3ccc(OCF)cc3)n3c2CCO[C@H](C)C3)cc1 [Example 4] | 3.3
C[C@@H]1Cn2c(-c3ccc(OCF)cc3)nc(-c3ccc(S(=O)(=O)NC(C)(C)C)cc3)c2CCO1 [Example 5] | 2.7
CCOc1ccc(-c2nc(-c3ccc(S(=O)(=O)NC(C)C)cc3)c3n2C[C@@H](C)OCC3)cc1 [Example 6] | 3.2
CCOc1ccc(-c2nc(-c3ccc(S(=O)(=O)NC(C)(C)C)cc3)c3n2C[C@@H](C)OCC3)cc1 [Example 7] | 3.6
C[C@@H]1Cn2c(-c3ccc(OC(F)F)cc3)nc(-c3ccc(S(=O)(=O)NC(C)(C)C)cc3)c2CCO1 [Example 9] | 2.7
COc1ccc(-c2nc(-c3ccc(S(=O)(=O)NC(C)(C)C)cc3)c3n2C[C@@H](C)OCC3)cc1 [Example 10] | 1.8
CC(C)NS(=O)(=O)c1ccc(-c2nc(-c3ccc(OC4COC4)cc3)n3c2CCOC(C)C3)cc1 (centres unmarked) [Example 11] | 7.1
CC(C)NS(=O)(=O)c1ccc(-c2nc(-c3ccc(OC(F)F)cc3)n3c2CCO[C@H](C)C3)cc1 [Example 12] | 1.4
C[C@@H]1Cn2c(-c3ccc(F)cc3)nc(-c3ccc(S(=O)(=O)NC(C)(C)C)cc3)c2CCO1 [Example 13] | 4
CNS(=O)(=O)c1ccc(-c2nc(-c3ccc(F)cc3)n3c2CCO[C@H](C)C3)cc1 [Example 14] | 9.8
CCNS(=O)(=O)c1ccc(-c2nc(-c3ccc(F)cc3)n3c2CCO[C@H](C)C3)cc1 [Example 15] | 4.1
C[C@@H]1Cn2c(-c3ccc(F)cc3)nc(-c3ccc(S(=O)(=O)NC4CC4)cc3)c2CCO1 [Example 16] | 4.2
CC1Cn2c(-c3ccc(F)cc3)nc(-c3ccc(S(=O)(=O)NC4(C)CCC4)cc3)c2CCO1 (centres unmarked) [Example 17] | 2.3
C[C@@H]1Cn2c(-c3ccc(OCF)cc3)nc(-c3ccc(S(=O)(=O)NC4CC4)cc3)c2CCO1 [Example 18] | 3.6
C[C@@H]1Cn2c(-c3ccc(OCF)cc3)nc(-c3ccc(S(=O)(=O)NC4CCC4)cc3)c2CCO1 [Example 19] | 6.3
CNS(=O)(=O)c1ccc(-c2nc(-c3ccc(OCF)cc3)n3c2CCO[C@H](C)C3)cc1 [Example 20] | 21.8

SMILES | IC50 [nM]
CCNS(=O)(=O)c1ccc(-c2nc(-c3ccc(OCF)cc3)n3c2CCO[C@H](C)C3)cc1 [Example 21] | 11.2
CC1Cn2c(-c3ccc(OCF)cc3)nc(-c3ccc(S(=O)(=O)NC4(C)CCC4)cc3)c2CCO1 (centres unmarked) [Example 22] | 3.1
C[C@@H]1Cn2c(-c3ccc(OC(F)F)cc3)nc(-c3ccc(S(=O)(=O)NC4CC4)cc3)c2CCO1 [Example 23] | 1.6
C[C@@H]1Cn2c(-c3ccc(OC(F)F)cc3)nc(-c3ccc(S(=O)(=O)NC4CCC4)cc3)c2CCO1 [Example 24] | 2.7
CNS(=O)(=O)c1ccc(-c2nc(-c3ccc(OC(F)F)cc3)n3c2CCO[C@H](C)C3)cc1 [Example 25] | 3.1
CCNS(=O)(=O)c1ccc(-c2nc(-c3ccc(OC(F)F)cc3)n3c2CCO[C@H](C)C3)cc1 [Example 26] | 3.7
CC1Cn2c(-c3ccc(OC(F)F)cc3)nc(-c3ccc(S(=O)(=O)NC4(C)CCC4)cc3)c2CCO1 (centres unmarked) [Example 27] | 2.3
COc1ccc(-c2nc(-c3ccc(S(=O)(=O)NC4CC4)cc3)c3n2C[C@@H](C)OCC3)cc1 [Example 28] | 7.4
CNS(=O)(=O)c1ccc(-c2nc(-c3ccc(OC)cc3)n3c2CCO[C@H](C)C3)cc1 [Example 29] | 26.8
CCNS(=O)(=O)c1ccc(-c2nc(-c3ccc(OC)cc3)n3c2CCO[C@H](C)C3)cc1 [Example 30] | 7.4
COc1ccc(-c2nc(-c3ccc(S(=O)(=O)NC4(C)CCC4)cc3)c3n2CC(C)OCC3)cc1 (centres unmarked) [Example 31] | 3
CCOc1ccc(-c2nc(-c3ccc(S(=O)(=O)NC4CC4)cc3)c3n2C[C@@H](C)OCC3)cc1 [Example 32] | 3.9
CCOc1ccc(-c2nc(-c3ccc(S(=O)(=O)NC4CCC4)cc3)c3n2C[C@@H](C)OCC3)cc1 [Example 33] | 3
CCOc1ccc(-c2nc(-c3ccc(S(=O)(=O)NC)cc3)c3n2C[C@@H](C)OCC3)cc1 [Example 34] | 7
CCNS(=O)(=O)c1ccc(-c2nc(-c3ccc(OCC)cc3)n3c2CCO[C@H](C)C3)cc1 [Example 35] | 1.8
CCOc1ccc(-c2nc(-c3ccc(S(=O)(=O)NC4(C)CCC4)cc3)c3n2C[C@@H](C)OCC3)cc1 [Example 36] | 1.3
